Key:
[1] = system: IL-8 (Interleukin-8) production; assay: Glucocorticoid inhibition of IL-1 induced IL-8 production in SW1353 human chondrosarcoma cells; format: cell-based; details: 20 ng/ml IL-1 beta, 24 hours after IL-1 addition, ELISA, read-out: IC50, inhibition of IL-8 expression
Protocol: (§1) This assay, the glucocorticoid inhibition of IL-1 (Interleukin-1) induced MMP-1 (Matrix Metalloproteinase-1) and IL-8 (Interleukin-8) production in human chondrosarcoma cells, is conducted as follows: SW1353 human chondrosarcoma cells (obtained from ATCC) from passage 12 through passage 19 are used in a 96 well format assay. Cells are plated at confluence into 96 well plates in DMEM (Dulbecco's Modified Eagle Medium) with 10% fetal bovine serum and incubated at 37° C., 5% CO2. After 24 hours, serum containing media is removed and replaced with 200 ul/well DMEM containing 1 mg/L insulin, 2 g/L lactalbumin hydrosylate, and 0.5 mg/L ascorbic acid and returned to incubation at 37° C., 5% CO2. […] IL-8 production is assessed using the Quantikine human IL-8 ELISA kit from R&D Systems (D8050) on samples diluted 60-fold in RD5P Calibrator Diluent, following the manufacturer's protocol. The percent of the average IL-1 control is determined for the average of each of the triplicate samples following subtraction of the average signal from untreated cells. IC50's are determined from log linear plots of the percent of control versus the concentration of inhibitor. […] MMP-1 production is assessed via the Bio-Trak MMP-1 ELISA kit from Amersham (RPN2610) on 100 ul of neat sample following the manufacturer's protocol. […]

[2] = system: MMP-1 (Matrix Metalloproteinase-1) production; assay: Glucocorticoid inhibition of IL-1 induced MMP-1 production in SW1353 human chondrosarcoma cells; format: cell-based; details: 20 ng/ml IL-1 beta, 72 hours after IL-1 addition, ELISA, read-out: IC50, inhibition of MMP1 expression
Protocol: as §1

C[C@@H]1C[C@H]2[C@@H]3CCC4=CC(=O)C=C[C@]4(C)[C@@]3(F)[C@@H](O)C[C@]2(C)[C@@]1(O)C(=O)CO [Dexamethasone]
IC50 [1]: 5 nM | IC50 [2]: 5 nM

Source: patent US20070129410A1, “Octahydrophenanthrene hydrazinde derivatives useful as glucocorticoid receptor modulators” (Pfizer Inc., priority 2003, published 2007)
